From patent US12275731B2, “Azaindole inhibitors of wild-type and mutant forms of LRRK2” (DANA-FARBER CANCER INSTITUTE, INC., priority 2018, dated 2025)
pIC50: −log10 of the molar value. Read-outs that look alike come from different tables or passages of the source.

Legend:
LRRK2 WT enzyme = target: T1, LRRK2 WT enzyme (Homo sapiens, UniProt Q5S007); test: LRRK2 wild type kinase inhibition assay (ADP-Glo); format: biochemical; conditions: for pIC50: Table 2, class symbols, read-out: Enzyme activity against LRRK2 WT (IC50); for IC50: Table 1, read-out: IC50 (nM) LRRK2 wt
T1 construct: purchased Thermo Fisher Scientific PR8604B
Procedure: (§1) IC50 experiments were performed for inventive compounds. An exemplary kit to perform this assay includes the Adapta™ Screening Protocol and Assay Conditions by Invitrogen™ (Fisher Scientific™, Catalog No. PV5099).
(§2) All LRRK2 kinase inhibition assays were conducted by using Promega ADP-Glo™ Kinase assay systems (Catalog number; V4475). Inhibitors were tested with 12 concentrations over a 5-fold serial dilution series (50 μM, 10 μM, 2 μM, 400 nM, 80 nM, 16 nM, 3.2 nM, […]) and PF06447475 as positive control. For the LRRK2 wild type (WT) enzyme assay, each inhibitor was mixed with 0.2 μg/μL of substrate (LRRKtide, SignalChem, Richmond, BC, Canada), […] (Invitrogen™, Carlsbad, CA), 24 ng of LRRK2 WT enzyme (Thermo Fisher Scientific, PR8604B) in 384-well plate. For LRRK G2019S, each compound was mixed with 0.2 μg/μL of substrate, […], 16 ng of LRRK2 G2019S enzyme (SignalChem, L10-12GG). All samples were diluted with kinase reaction buffer (40 mmol/L TrisHCl, 10 mmol/L MgCl2, and 0.1 μg/μL BSA (bovine serum albumin)). After 2 hours at 25° C., ADP-Glo™ (Promega, Madison, WI) reagent was added and the samples were incubated at rt for 40 min. Finally, Kinase Detection Reagent was added and the resulting mixtures were allowed to react at rt for 10 min. Luminescence signals were detected using Synergy™ Neo2 microplate reader (Bio-Tek). Compound inhibition curve was fitted using Graphpad Prism 8.0 software.

LRRK2(G2019S) = LRRK2(G2019S) (Homo sapiens, UniProt Q5S007, G2019S); test: LRRK2 G2019S kinase inhibition assay (ADP-Glo); format: biochemical; set-up: purchased SignalChem L10-12GG; conditions: for pIC50: Table 2, class symbols, read-out: Enzyme activity against LRRK2 G2019S (IC50); for IC50: Table 1, read-out: IC50 (nM) LRRK2 G2019S
Procedure: as §1, §2

Chain of LRRK2(G2019S) (Q5S007 970-2527 G2019S limits assumed): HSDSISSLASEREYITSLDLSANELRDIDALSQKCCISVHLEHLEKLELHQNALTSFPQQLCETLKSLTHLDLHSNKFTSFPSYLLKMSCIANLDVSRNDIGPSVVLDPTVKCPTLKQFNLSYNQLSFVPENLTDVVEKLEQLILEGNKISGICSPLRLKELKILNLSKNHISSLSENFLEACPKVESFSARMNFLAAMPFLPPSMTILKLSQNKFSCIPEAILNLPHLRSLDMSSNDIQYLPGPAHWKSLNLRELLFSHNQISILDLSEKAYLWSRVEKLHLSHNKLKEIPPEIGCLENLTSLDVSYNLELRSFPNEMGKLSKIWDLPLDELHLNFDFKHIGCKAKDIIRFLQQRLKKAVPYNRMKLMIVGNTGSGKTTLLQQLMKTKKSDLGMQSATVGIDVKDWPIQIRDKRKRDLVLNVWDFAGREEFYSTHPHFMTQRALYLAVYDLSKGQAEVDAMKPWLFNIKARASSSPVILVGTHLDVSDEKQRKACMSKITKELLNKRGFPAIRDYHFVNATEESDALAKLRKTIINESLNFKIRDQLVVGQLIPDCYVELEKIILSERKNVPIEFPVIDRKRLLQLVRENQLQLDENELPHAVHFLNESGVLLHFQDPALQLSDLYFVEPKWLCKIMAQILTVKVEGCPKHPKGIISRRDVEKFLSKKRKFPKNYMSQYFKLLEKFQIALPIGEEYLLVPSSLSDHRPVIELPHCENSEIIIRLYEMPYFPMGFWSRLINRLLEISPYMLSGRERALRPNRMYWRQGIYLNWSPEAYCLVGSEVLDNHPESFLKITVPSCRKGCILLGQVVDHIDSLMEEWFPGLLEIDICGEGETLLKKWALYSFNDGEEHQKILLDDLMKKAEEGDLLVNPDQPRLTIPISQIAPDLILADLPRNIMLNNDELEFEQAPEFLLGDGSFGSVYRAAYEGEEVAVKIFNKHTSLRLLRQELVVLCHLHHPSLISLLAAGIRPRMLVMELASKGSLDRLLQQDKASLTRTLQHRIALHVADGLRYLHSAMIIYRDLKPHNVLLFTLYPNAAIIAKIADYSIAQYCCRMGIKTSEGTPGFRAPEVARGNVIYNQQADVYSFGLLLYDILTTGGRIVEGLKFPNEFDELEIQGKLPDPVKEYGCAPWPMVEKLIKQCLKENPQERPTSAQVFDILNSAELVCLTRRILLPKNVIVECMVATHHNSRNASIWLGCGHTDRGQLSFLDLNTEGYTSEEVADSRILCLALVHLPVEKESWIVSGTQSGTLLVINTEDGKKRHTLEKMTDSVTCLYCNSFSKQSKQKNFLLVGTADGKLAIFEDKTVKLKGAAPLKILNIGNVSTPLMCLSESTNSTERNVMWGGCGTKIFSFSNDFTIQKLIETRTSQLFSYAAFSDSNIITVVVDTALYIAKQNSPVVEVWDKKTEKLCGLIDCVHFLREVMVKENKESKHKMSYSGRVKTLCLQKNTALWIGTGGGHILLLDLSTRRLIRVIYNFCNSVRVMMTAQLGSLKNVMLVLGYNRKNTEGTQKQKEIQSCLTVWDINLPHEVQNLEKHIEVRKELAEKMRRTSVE
T1 sequence (Q5S007 970-2527 limits assumed): as the sequence (Q5S007 970-2527 G2019S limits assumed) above, with S1050G counted along it

Row | Compound | pIC50 (LRRK2 WT enzyme) | pIC50 (LRRK2(G2019S)) | IC50 (LRRK2 WT enzyme) [nM] | IC50 (LRRK2(G2019S)) [nM]
1 | CNc1c(-c2cnn([C@H]3CCN(C4COC4)C[C@@H]3F)c2)cnc2[nH]cc(Cl)c12 [Compound 70, 3-chloro-5-(1-((3S,4S)-3-fluoro-1-(oxetan-3-yl)piperidin-4-yl)-1H-pyrazol-4-yl)-N-methyl-1H-pyrrolo[2,3-b]pyridin-4-amine] | 7.00 to 8.00 | 7.00 to 8.00 | – | –
2 | O=C(c1ccc(-c2cnc3[nH]cc(Cl)c3c2NC2CC2)cc1)N1CCC(N2CCOCC2)CC1 [Compound 99, (4-(3-chloro-4-(cyclopropylamino)-1H-pyrrolo[2,3-b]pyridin-5-yl)phenyl)(4-morpholinopiperidin-1-yl)methanone] | 7.00 to 8.00 | < 7.00 | – | –
3 | CNc1c(-c2nn(C)c3ccc(C#N)cc23)cnc2[nH]cc(Cl)c12 [Compound 14, 3-(3-chloro-4-(methylamino)-1H-pyrrolo[2,3-b]pyridin-5-yl)-1-methyl-1H-indazole-5-carbonitrile] | – | – | 95.2 | 305
4 | CNc1c(-c2cnn(C3CCN(C)CC3)c2)cnc2[nH]cc(Cl)c12 [Compound 5, 3-chloro-N-methyl-5-(1-(1-methylpiperidin-4-yl)-1H-pyrazol-4-yl)-1H-pyrrolo[2,3-b]pyridin-4-amine] | – | – | 22 | 20
5 | CNc1c(-c2cnn(C(C)(C)C#N)c2)cnc2[nH]cc(Cl)c12 [Compound 4, 2-(4-(3-chloro-4-(methylamino)-1H-pyrrolo[2,3-b]pyridin-5-yl)-1H-pyrazol-1-yl)-2-methylpropanenitrile] | – | – | 15 | 14
6 | CNc1c(-c2cnn(C3CCN(C)CC3)c2)cnc2[nH]ccc12 [Compound 2, N-methyl-5-(1-(1-methylpiperidin-4-yl)-1H-pyrazol-4-yl)-1H-pyrrolo[2,3-b]pyridin-4-amine] | – | – | 891 | 825
7 | CCNc1c(-c2cnn([C@H]3CCN(C(C)=O)C[C@@H]3F)c2)cnc2[nH]cc(Cl)c12 [Compound 78, 1-((3S,4S)-4-(4-(3-chloro-4-(ethylamino)-1H-pyrrolo[2,3-b]pyridin-5-yl)-1H-pyrazol-1-yl)-3-fluoropiperidin-1-yl)ethan-1-one] | 7.00 to 8.00 | 7.00 to 8.00 | – | –
8 | CCNc1c(-c2ccc(C(=O)N3CCC(N4CCOCC4)CC3)cc2)cnc2[nH]cc(Cl)c12 [Compound 97, (4-(3-chloro-4-(ethylamino)-1H-pyrrolo[2,3-b]pyridin-5-yl)phenyl)(4-morpholinopiperidin-1-yl)methanone] | > 8.00 | 7.00 to 8.00 | – | –
9 | CNc1c(-c2ccn(C)n2)cnc2[nH]cc(Cl)c12 [Compound 11, 3-chloro-N-methyl-5-(1-methyl-1H-pyrazol-3-yl)-1H-pyrrolo[2,3-b]pyridin-4-amine] | – | – | 8.4 | 30.9
10 | CC(C)Nc1c(-c2ccc(C(=O)N3CCOCC3)cc2)cnc2[nH]ccc12 [Compound 48, (4-(4-(isopropylamino)-1H-pyrrolo[2,3-b]pyridin-5-yl)phenyl)(morpholino)methanone] | 7.00 to 8.00 | 7.00 to 8.00 | – | –
11 | CC(C)Nc1c(-c2ccn(C)n2)cnc2[nH]cc(Cl)c12 [Compound 12, 3-chloro-N-isopropyl-5-(1-methyl-1H-pyrazol-3-yl)-1H-pyrrolo[2,3-b]pyridin-4-amine] | – | – | 136 | 514
12 | CCNc1c(-c2ccc(C(=O)N3CCOCC3)cc2)cnc2[nH]cc(Cl)c12 [Compound 91, (4-(3-chloro-4-(ethylamino)-1H-pyrrolo[2,3-b]pyridin-5-yl)phenyl)(morpholino)methanone] | 7.00 to 8.00 | 7.00 to 8.00 | – | –
13 | CNc1c(-c2cnn(C3CCOCC3)c2)cnc2[nH]ccc12 [Compound 3, N-methyl-5-(1-(tetrahydro-2H-pyran-4-yl)-1H-pyrazol-4-yl)-1H-pyrrolo[2,3-b]pyridin-4-amine] | – | – | 264 | 164
14 | CCc1cc(-c2cnc3[nH]cc(Cl)c3c2NC(C)C)nn1C [Compound 10, 3-chloro-5-(5-ethyl-1-methyl-1H-pyrazol-3-yl)-N-isopropyl-1H-pyrrolo[2,3-b]pyridin-4-amine] | – | – | 259 | 523
15 | CNc1c(-c2c3cc(OC)ccc3nn2C)cnc2[nH]cc(Cl)c12 [Compound 16, 3-chloro-5-(5-methoxy-2-methyl-2H-indazol-3-yl)-N-methyl-1H-pyrrolo[2,3-b]pyridin-4-amine] | – | – | 6230 | > 10000
16 | CNc1c(-c2nn(C)c3ccc(OC)cc23)cnc2[nH]cc(Cl)c12 [Compound 15, 3-(3-chloro-4-(methylamino)-1H-pyrrolo[2,3-b]pyridin-5-yl)-5-methoxy-1-methyl-1H-indazole] | – | – | 140 | 397
17 | CC(=O)N1CC[C@H](n2cc(-c3cnc4[nH]ccc4c3NC3CCCC3)cn2)[C@@H](F)C1 [Compound 38, 1-((3S,4S)-4-(4-(4-(cyclopentylamino)-1H-pyrrolo[2,3-b]pyridin-5-yl)-1H-pyrazol-1-yl)-3-fluoropiperidin-1-yl)ethan-1-one] | 7.00 to 8.00 | 7.00 to 8.00 | – | –
18 | CNc1c(-c2cnn(C3CCOCC3)c2)cnc2[nH]cc(Cl)c12 [Compound 6, 3-chloro-N-methyl-5-(1-(tetrahydro-2H-pyran-4-yl)-1H-pyrazol-4-yl)-1H-pyrrolo[2,3-b]pyridin-4-amine] | – | – | 10 | 15
19 | CNc1c(C(F)(F)F)cnc2[nH]cc(-c3cnn(C4CCN(C)CC4)c3)c12 [Compound 8, N-methyl-3-(1-(1-methylpiperidin-4-yl)-1H-pyrazol-4-yl)-5-(trifluoromethyl)-1H-pyrrolo[2,3-b]pyridin-4-amine] | – | – | 103 | 61
20 | CCc1cc(-c2cnc3[nH]cc(Cl)c3c2NC)nn1C [Compound 9, 3-chloro-5-(5-ethyl-1-methyl-1H-pyrazol-3-yl)-N-methyl-1H-pyrrolo[2,3-b]pyridin-4-amine] | – | – | 36.6 | 83.1
21 | CNc1c(C(F)(F)F)cnc2[nH]cc(-c3cnn(C(C)(C)C#N)c3)c12 [Compound 7, 2-methyl-2-(4-(4-(methylamino)-5-(trifluoromethyl)-1H-pyrrolo[2,3-b]pyridin-3-yl)-1H-pyrazol-1-yl)propanenitrile] | – | – | 38 | 26
22 | CNc1c(-c2cnn(C(C)(C)C#N)c2)cnc2[nH]ccc12 [Compound 1, 2-methyl-2-(4-(4-(methylamino)-1H-pyrrolo[2,3-b]pyridin-5-yl)-1H-pyrazol-1-yl)propanenitrile] | – | – | 544 | 326
23 | CNc1c(-c2ccc(C(=O)N3CCOCC3)cc2)cnc2[nH]cc(Cl)c12 [Compound 90, (4-(3-chloro-4-(methylamino)-1H-pyrrolo[2,3-b]pyridin-5-yl)phenyl)(morpholino)methanone] | > 8.00 | > 8.00 | – | –
24 | COCCNc1c(-c2cnn([C@H]3CCN(C(C)=O)C[C@@H]3F)c2)cnc2[nH]cc(Cl)c12 [Compound 81, 1-((3S,4S)-4-(4-(3-chloro-4-((2-methoxyethyl)amino)-1H-pyrrolo[2,3-b]pyridin-5-yl)-1H-pyrazol-1-yl)-3-fluoropiperidin-1-yl)ethan-1-one] | 7.00 to 8.00 | < 7.00 | – | –
25 | CC(C)Nc1c(-c2ccc(C(=O)N3CCC(N4CCOCC4)CC3)cc2)cnc2[nH]ccc12 [Compound 54, (4-(4-(isopropylamino)-1H-pyrrolo[2,3-b]pyridin-5-yl)phenyl)(4-morpholinopiperidin-1-yl)methanone] | 7.00 to 8.00 | 7.00 to 8.00 | – | –
26 | F[C@H]1CN(C2COC2)CC[C@@H]1n1cc(-c2cnc3[nH]ccc3c2NC2CCCC2)cn1 [Compound 31, N-cyclopentyl-5-(1-((3S,4S)-3-fluoro-1-(oxetan-3-yl)piperidin-4-yl)-1H-pyrazol-4-yl)-1H-pyrrolo[2,3-b]pyridin-4-amine] | 7.00 to 8.00 | 7.00 to 8.00 | – | –
27 | CNc1c(-c2cn(C3CCOCC3)nc2C2CC2)cnc2[nH]cc(Cl)c12 [Compound 13, 3-chloro-5-(3-cyclopropyl-1-(tetrahydro-2H-pyran-4-yl)-1H-pyrazol-4-yl)-N-methyl-1H-pyrrolo[2,3-b]pyridin-4-amine] | – | – | 3600 | > 10000
28 | O=C(c1ccc(-c2cnc3[nH]cc(Cl)c3c2NC2CC2)cc1)N1CCOCC1 [Compound 93, (4-(3-chloro-4-(cyclopropylamino)-1H-pyrrolo[2,3-b]pyridin-5-yl)phenyl)(morpholino)methanone] | 7.00 to 8.00 | 7.00 to 8.00 | – | –
